For seven molecules, IC50 results are on record in patent US9340590B2 (priority 2011, dated 2016).

SMILES strings stand for the structures. Where two headings read alike, the source gives them in different places. Positions of bridges follow the written chain, without caps; N, C: chain ends. Non-standard residues stand in square brackets, D forms with d. Residues, ends and D or L forms follow the SMILES beside them. 2Nal = N[C@@H](Cc1ccc2ccccc2c1)C(=O)O; pGlu = O=C1CC[C@@H](C(=O)O)N1

Test in all cases: cell-based
The target in one assay is hNav1.5 (Homo sapiens, UniProt Q14524).
For another assay, the target named is hNav1.7 (Homo sapiens, UniProt Q15858). It is filed as cell-based. As to conditions: IonWorks Quattro, read-out: IWQ Use Nav1.7. For orientation: In patch-clamp work, channel activity is measured electrically.
Sequence of hNav1.7 (Q15858 whole entry, looked up): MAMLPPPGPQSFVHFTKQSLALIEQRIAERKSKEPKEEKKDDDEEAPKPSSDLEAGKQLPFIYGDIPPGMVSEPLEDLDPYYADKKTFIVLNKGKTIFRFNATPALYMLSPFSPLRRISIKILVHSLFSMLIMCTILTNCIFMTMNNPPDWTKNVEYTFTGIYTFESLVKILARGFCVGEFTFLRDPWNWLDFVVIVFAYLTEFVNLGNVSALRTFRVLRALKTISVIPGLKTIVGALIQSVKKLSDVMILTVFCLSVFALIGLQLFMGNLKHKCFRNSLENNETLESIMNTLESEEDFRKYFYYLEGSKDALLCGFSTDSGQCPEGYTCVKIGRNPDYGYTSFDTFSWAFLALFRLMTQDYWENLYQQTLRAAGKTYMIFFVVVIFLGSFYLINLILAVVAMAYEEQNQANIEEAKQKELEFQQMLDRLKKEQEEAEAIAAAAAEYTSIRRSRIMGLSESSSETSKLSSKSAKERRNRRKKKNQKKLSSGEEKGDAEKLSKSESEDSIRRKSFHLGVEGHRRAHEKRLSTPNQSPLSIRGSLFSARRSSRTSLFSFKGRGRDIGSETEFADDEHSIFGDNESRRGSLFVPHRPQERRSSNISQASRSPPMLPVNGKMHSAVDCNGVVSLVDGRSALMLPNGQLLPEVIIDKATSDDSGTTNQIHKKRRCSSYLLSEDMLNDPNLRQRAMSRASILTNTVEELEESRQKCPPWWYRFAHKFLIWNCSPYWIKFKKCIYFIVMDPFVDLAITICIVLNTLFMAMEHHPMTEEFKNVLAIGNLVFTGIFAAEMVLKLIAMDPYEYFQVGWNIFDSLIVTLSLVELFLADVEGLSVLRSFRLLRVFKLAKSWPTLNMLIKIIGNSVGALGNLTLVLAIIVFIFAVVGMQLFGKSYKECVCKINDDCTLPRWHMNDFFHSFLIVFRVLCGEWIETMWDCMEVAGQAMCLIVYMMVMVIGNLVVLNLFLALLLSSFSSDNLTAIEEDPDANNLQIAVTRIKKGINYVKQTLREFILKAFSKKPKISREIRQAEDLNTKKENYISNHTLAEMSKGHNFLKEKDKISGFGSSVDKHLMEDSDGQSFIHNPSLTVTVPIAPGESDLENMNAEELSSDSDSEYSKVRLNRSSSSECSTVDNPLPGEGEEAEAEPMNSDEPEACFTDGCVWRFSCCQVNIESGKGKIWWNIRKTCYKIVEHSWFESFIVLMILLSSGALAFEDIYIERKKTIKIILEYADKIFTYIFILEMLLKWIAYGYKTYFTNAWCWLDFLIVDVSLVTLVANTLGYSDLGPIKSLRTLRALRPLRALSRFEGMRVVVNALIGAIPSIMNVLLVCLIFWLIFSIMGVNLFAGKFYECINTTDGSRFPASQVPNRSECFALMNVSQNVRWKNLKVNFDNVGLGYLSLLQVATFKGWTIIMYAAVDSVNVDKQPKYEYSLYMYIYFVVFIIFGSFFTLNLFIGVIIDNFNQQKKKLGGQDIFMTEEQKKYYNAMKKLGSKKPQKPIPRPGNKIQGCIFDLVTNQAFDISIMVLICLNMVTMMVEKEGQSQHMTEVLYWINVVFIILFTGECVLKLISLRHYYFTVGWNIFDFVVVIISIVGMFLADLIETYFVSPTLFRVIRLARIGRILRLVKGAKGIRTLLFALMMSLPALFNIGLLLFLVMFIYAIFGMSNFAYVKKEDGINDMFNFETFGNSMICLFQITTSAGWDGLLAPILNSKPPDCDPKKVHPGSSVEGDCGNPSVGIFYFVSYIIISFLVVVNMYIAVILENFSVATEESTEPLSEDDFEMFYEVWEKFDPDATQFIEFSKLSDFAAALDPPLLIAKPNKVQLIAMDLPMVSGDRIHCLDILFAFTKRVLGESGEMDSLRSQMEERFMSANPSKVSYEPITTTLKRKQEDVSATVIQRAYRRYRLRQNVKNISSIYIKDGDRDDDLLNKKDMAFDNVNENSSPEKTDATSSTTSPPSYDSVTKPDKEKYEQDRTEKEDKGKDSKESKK
The target in a further assay is hNav1.3 (Homo sapiens, UniProt Q9NY46). To be noted: IonWorks Quattro, read-out: IWQ Use Nav1.3.
Sequence of hNav1.3 (Q9NY46 whole entry, looked up): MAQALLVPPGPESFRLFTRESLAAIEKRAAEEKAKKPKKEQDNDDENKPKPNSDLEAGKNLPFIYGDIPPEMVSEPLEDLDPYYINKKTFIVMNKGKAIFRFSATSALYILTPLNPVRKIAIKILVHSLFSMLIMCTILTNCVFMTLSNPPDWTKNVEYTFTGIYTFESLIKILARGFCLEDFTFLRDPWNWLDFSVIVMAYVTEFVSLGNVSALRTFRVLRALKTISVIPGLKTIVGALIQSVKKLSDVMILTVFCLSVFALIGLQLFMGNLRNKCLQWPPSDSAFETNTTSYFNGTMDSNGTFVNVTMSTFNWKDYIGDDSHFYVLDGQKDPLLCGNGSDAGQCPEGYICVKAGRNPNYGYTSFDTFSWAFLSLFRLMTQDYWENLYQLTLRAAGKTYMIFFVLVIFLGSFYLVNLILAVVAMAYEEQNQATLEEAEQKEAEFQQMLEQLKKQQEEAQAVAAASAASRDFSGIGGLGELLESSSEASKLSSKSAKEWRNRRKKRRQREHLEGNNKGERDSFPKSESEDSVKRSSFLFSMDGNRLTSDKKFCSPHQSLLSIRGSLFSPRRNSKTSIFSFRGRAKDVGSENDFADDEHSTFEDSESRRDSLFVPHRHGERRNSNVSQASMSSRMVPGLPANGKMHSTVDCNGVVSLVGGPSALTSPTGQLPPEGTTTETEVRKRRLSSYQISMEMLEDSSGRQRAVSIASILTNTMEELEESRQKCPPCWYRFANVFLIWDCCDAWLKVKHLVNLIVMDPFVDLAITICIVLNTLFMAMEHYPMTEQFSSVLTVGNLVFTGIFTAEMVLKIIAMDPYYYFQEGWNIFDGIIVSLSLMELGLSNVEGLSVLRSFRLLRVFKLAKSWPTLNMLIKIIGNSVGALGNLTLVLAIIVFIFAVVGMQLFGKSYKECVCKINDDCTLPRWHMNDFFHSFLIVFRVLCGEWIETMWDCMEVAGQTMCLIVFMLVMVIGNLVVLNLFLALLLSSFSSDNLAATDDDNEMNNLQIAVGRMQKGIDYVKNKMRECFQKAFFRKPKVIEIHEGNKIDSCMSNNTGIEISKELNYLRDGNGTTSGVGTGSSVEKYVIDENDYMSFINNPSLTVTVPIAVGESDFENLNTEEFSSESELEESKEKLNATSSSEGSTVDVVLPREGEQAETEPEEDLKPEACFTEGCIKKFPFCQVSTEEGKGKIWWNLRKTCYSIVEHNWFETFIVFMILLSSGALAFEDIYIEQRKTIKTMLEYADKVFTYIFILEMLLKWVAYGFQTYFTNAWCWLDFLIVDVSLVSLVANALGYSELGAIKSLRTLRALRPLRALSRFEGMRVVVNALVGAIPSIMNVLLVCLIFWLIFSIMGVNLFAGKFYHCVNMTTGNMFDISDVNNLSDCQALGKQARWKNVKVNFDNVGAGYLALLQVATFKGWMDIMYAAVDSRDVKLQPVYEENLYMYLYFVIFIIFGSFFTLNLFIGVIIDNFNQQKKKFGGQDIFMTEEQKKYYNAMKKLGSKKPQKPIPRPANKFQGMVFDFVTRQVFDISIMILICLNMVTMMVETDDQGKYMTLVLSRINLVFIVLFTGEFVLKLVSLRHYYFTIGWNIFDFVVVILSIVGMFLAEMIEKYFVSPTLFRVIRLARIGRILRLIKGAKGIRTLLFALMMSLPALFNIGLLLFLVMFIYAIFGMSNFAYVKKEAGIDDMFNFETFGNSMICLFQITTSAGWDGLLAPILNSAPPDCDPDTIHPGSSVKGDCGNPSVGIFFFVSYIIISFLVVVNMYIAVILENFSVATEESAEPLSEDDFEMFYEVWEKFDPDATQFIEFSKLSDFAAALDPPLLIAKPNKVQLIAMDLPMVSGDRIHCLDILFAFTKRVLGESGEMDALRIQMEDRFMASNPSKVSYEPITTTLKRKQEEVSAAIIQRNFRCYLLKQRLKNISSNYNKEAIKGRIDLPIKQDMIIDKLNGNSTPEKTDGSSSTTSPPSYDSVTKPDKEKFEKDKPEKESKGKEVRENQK
[1] abbreviates: IonWorks Quattro, clamped to −110 mV, depolarized to −10 mV, 5 min after compound, n=2, read-out: IWQ Use Nav1.5.
Setting [2] is: clamped to −110 mV, depolarized to −10 mV, 5 min after compound, n=2.

Regarding `CC[C@H](C)[C@@H]1NC(=O)[C@@H]2CSSC[C@@H]3NC(=O)[C@H](C(C)C)NC(=O)[C@H](CC(C)C)NC(=O)[C@H](CC(N)=O)NC(=O)[C@@H]4CCCN4C(=O)[C@H](CCCNC(=N)N)NC(=O)[C@H](CSSC[C@H](NC(=O)[C@@H](N)CC(=O)O)C(=O)N[C@@H](CC(C)C)C(=O)NCC(=O)N[C@@H](Cc4ccc5ccccc5c4)C(=O)N[C@@H](CCSC)C(=O)N[C@@H](CCCNC(=N)N)C(=O)N[C@@H](CCCCN)C(=O)N2)NC(=O)[C@H](CSSC[C@@H](C(=O)N[C@@H](CCCCN)C(=O)N[C@@H](Cc2ccc(O)cc2)C(=O)N[C@H](C(=O)N[C@@H](Cc2ccccc2)C(N)=O)C(C)C)NC(=O)[C@H](Cc2c[nH]c4ccccc24)NC(=O)[C@H](CCCCN)NC(=O)[C@H](Cc2c[nH]cn2)NC(=O)[C@H]([C@@H](C)O)NC(=O)[C@H](CCCNC(=N)N)NC(=O)[C@H](CO)NC3=O)NC(=O)[C@H](CCCCN)NC(=O)[C@H](CC(=O)O)NC(=O)[C@H](CC(N)=O)NC(=O)[C@H](CC(=O)O)NC(=O)[C@@H]2CCCN2C1=O` [SEQ ID NO: 128], the IC50 on hNav1.5 (setting [1]) is 6.11 µM; at hNav1.7 (setting [2]), 110 nM; at hNav1.3 (setting [2]) it was 50 nM.

Take `CC[C@H](C)[C@@H]1NC(=O)[C@@H]2CSSC[C@@H]3NC(=O)[C@H](C(C)C)NC(=O)[C@H](CC(C)C)NC(=O)[C@H](CC(N)=O)NC(=O)[C@@H]4CCCN4C(=O)[C@H](CCCNC(=N)N)NC(=O)[C@H](CSSC[C@H](NC(=O)[C@@H](N)CC(=O)O)C(=O)N[C@@H](CC(C)C)C(=O)NCC(=O)N[C@@H](Cc4ccccc4)C(=O)N[C@@H](CCSC)C(=O)N[C@@H](CCCNC(=N)N)C(=O)N[C@@H](CCCCN)C(=O)N2)NC(=O)[C@H](CSSC[C@@H](C(=O)N[C@@H](CCCCN)C(=O)N[C@@H](Cc2ccc(O)cc2)C(=O)N[C@H](C(=O)N[C@@H](Cc2ccccc2)C(N)=O)C(C)C)NC(=O)[C@H](Cc2ccc4ccccc4c2)NC(=O)[C@H](CCCCN)NC(=O)[C@H](Cc2c[nH]cn2)NC(=O)[C@H]([C@@H](C)O)NC(=O)[C@H](CCCNC(=N)N)NC(=O)[C@H](CO)NC3=O)NC(=O)[C@H](CCCCN)NC(=O)[C@H](CC(=O)O)NC(=O)[C@H](CC(N)=O)NC(=O)[C@H](CC(=O)O)NC(=O)[C@@H]2CCCN2C1=O` [SEQ ID NO: 129, [2-Nal29]GpTx-1] (H-DCLGFMRKCIPDNDKCCRPNLVCSRTHK[2Nal]CKYVF-NH2; disulfide 2-17, 9-23, 16-30): the IC50 at hNav1.5 (Table 24, IonWorks Quattro, use, […], read-out: IWQ Use Nav1.5) came to 11.7 µM; on hNav1.7 (Table 24, use, […]), 580 nM; at hNav1.3 (Table 24, use, […]) it was 730 nM.

Regarding `CC[C@H](C)[C@@H]1NC(=O)[C@@H]2CSSC[C@@H]3NC(=O)[C@H](C(C)C)NC(=O)[C@H](CC(C)C)NC(=O)[C@H](CC(N)=O)NC(=O)[C@@H]4CCCN4C(=O)[C@H](CCCNC(=N)N)NC(=O)[C@H](CSSC[C@H](NC(=O)[C@@H](N)CC(=O)O)C(=O)N[C@@H](CC(C)C)C(=O)NCC(=O)N[C@@H](Cc4ccccc4)C(=O)N[C@@H](CCSC)C(=O)N[C@@H](CCCNC(=N)N)C(=O)N[C@@H](CCCCN)C(=O)N2)NC(=O)[C@H](CSSC[C@@H](C(=O)N[C@@H](CCCCN)C(=O)N[C@@H](Cc2ccc(O)cc2)C(=O)N[C@H](C(=O)N[C@@H](Cc2ccccc2)C(N)=O)C(C)C)NC(=O)[C@H](Cc2c[nH]c4ccccc24)NC(=O)[C@H](CCCCN)NC(=O)[C@H](Cc2cnc[nH]2)NC(=O)[C@H](CCC(=O)O)NC(=O)[C@H](CCCNC(=N)N)NC(=O)[C@H](CO)NC3=O)NC(=O)[C@H](CCCCN)NC(=O)[C@H](CC(=O)O)NC(=O)[C@H](CC(N)=O)NC(=O)[C@H](CC(=O)O)NC(=O)[C@@H]2CCCN2C1=O` [SEQ ID NO: 152, [Glu26]GpTx-1] (H-DCLGFMRKCIPDNDKCCRPNLVCSREHKWCKYVF-NH2; disulfide 2-17, 9-23, 16-30), the IC50 on hNav1.5 (IWQ Use Nav1.5 (μM)) is 17.2 µM; at hNav1.7 (Table 22, use, […]), 680 nM; at hNav1.3 (Table 22, use, […]), 710 nM.

As to `CC[C@H](C)[C@@H]1NC(=O)[C@@H]2CSSC[C@@H]3NC(=O)[C@H](C(C)C)NC(=O)[C@H](CC(C)C)NC(=O)[C@H](CC(N)=O)NC(=O)[C@@H]4CCCN4C(=O)[C@H](CCCNC(=N)N)NC(=O)[C@H](CSSC[C@H](NC(=O)[C@@H](N)CC(=O)O)C(=O)N[C@@H](CC(C)C)C(=O)NCC(=O)N[C@@H](Cc4ccccc4)C(=O)N[C@@H](CCCCN)C(=O)N[C@@H](CCCNC(=N)N)C(=O)N[C@@H](CCCCN)C(=O)N2)NC(=O)[C@H](CSSC[C@@H](C(=O)N[C@@H](CCCCN)C(=O)N[C@@H](Cc2ccc(O)cc2)C(=O)N[C@H](C(=O)N[C@@H](Cc2ccccc2)C(N)=O)C(C)C)NC(=O)[C@H](Cc2c[nH]c4ccccc24)NC(=O)[C@H](CCCCN)NC(=O)[C@H](Cc2cnc[nH]2)NC(=O)[C@H]([C@@H](C)O)NC(=O)[C@H](CCCNC(=N)N)NC(=O)[C@H](CO)NC3=O)NC(=O)[C@H](CCCCN)NC(=O)[C@H](CC(=O)O)NC(=O)[C@H](CC(N)=O)NC(=O)[C@H](CC(=O)O)NC(=O)[C@@H]2CCCN2C1=O` [SEQ ID NO: 154] (H-DCLGFKRKCIPDNDKCCRPNLVCSRTHKWCKYVF-NH2; disulfide 2-17, 9-23, 16-30), the IC50 came to 13.9 µM at hNav1.5 (setting [1]), 14500 nM on hNav1.7 (setting [2]) and 8490 nM at hNav1.3 (setting [2]).

Turning to `CC[C@H](C)[C@@H]1NC(=O)[C@@H]2CSSC[C@@H]3NC(=O)[C@H](C(C)C)NC(=O)[C@H](CC(C)C)NC(=O)[C@H](CC(N)=O)NC(=O)[C@@H]4CCCN4C(=O)[C@H](CCCNC(=N)N)NC(=O)[C@H](CSSC[C@H](NC(=O)[C@@H](N)CC(=O)O)C(=O)N[C@@H](CC(C)C)C(=O)NCC(=O)N[C@@H](Cc4ccccc4)C(=O)N[C@@H](CCSC)C(=O)N[C@@H](CCCNC(=N)N)C(=O)N[C@@H](CCCCN)C(=O)N2)NC(=O)[C@H](CSSC[C@@H](C(=O)N[C@@H](CCCCN)C(=O)N[C@@H](Cc2ccc(O)cc2)C(=O)N[C@H](C(=O)N[C@@H](Cc2ccccc2)C(N)=O)C(C)C)NC(=O)[C@H](Cc2c[nH]c4ccccc24)NC(=O)[C@H](CCCCN)NC(=O)[C@H](Cc2cnc[nH]2)NC(=O)[C@H]([C@@H](C)O)NC(=O)[C@H](CCCNC(=N)N)NC(=O)[C@H](CO)NC3=O)NC(=O)[C@H](CCCCN)NC(=O)[C@H](CC(=O)O)NC(=O)[C@H](CC(N)=O)NC(=O)[C@H](CC(=O)O)NC(=O)[C@H](Cc2c[nH]c3ccccc23)NC1=O` [SEQ ID NO: 171, [Trp11]GpTx-1] (H-DCLGFMRKCIWDNDKCCRPNLVCSRTHKWCKYVF-NH2; disulfide 2-17, 9-23, 16-30), the IC50 on hNav1.5 (IonWorks Quattro, Use, read-out: IWQ Use Nav1.5) was 9.5 µM; on hNav1.7 (Use), 70 nM; at hNav1.3 (Use) it was 40 nM.

As for `CC[C@H](C)[C@@H]1NC(=O)[C@@H]2CSSC[C@@H]3NC(=O)[C@H](C(C)C)NC(=O)[C@H](CC(C)C)NC(=O)[C@H](CC(N)=O)NC(=O)[C@@H]4CCCN4C(=O)[C@H](CCCNC(=N)N)NC(=O)[C@H](CSSC[C@H](NC(=O)[C@@H]4CCC(=O)N4)C(=O)N[C@@H](CC(C)C)C(=O)NCC(=O)N[C@@H](Cc4ccccc4)C(=O)N[C@@H](CCSC)C(=O)N[C@@H](CCCNC(=N)N)C(=O)N[C@@H](CCCCN)C(=O)N2)NC(=O)[C@H](CSSC[C@@H](C(=O)N[C@@H](CCCCN)C(=O)N[C@@H](Cc2ccc(O)cc2)C(=O)N[C@H](C(=O)N[C@@H](Cc2ccccc2)C(N)=O)C(C)C)NC(=O)[C@H](Cc2c[nH]c4ccccc24)NC(=O)[C@H](CCCCN)NC(=O)[C@H](Cc2c[nH]cn2)NC(=O)[C@H]([C@@H](C)O)NC(=O)[C@H](CCCNC(=N)N)NC(=O)[C@H](CO)NC3=O)NC(=O)[C@H](CCCCN)NC(=O)[C@H](CC(=O)O)NC(=O)[C@H](CC(N)=O)NC(=O)[C@H](CC(=O)O)NC(=O)[C@@H]2CCCN2C1=O` [SEQ ID NO: 188] ([pGlu]CLGFMRKCIPDNDKCCRPNLVCSRTHKWCKYVF-NH2; disulfide 2-17, 9-23, 16-30), the IC50 at hNav1.5 (setting [1]) was 10.7 µM; at hNav1.7 (setting [2]), 170 nM; on hNav1.3 (setting [2]) it was 110 nM.

For the molecule `CC[C@H](C)[C@H](N)C(=O)N[C@H]1CSSC[C@@H]2NC(=O)[C@@H]3CSSC[C@@H](C(=O)N[C@@H](CCCCN)C(=O)N[C@@H](Cc4ccc(O)cc4)C(=O)N[C@H](C(=O)N[C@@H](Cc4ccccc4)C(N)=O)C(C)C)NC(=O)[C@H](Cc4c[nH]c5ccccc45)NC(=O)[C@H](CCCCN)NC(=O)[C@H](Cc4c[nH]cn4)NC(=O)[C@H]([C@@H](C)O)NC(=O)[C@H](CCCNC(=N)N)NC(=O)[C@H](CO)NC(=O)[C@H](CSSC[C@H](NC(=O)[C@H](CCCCN)NC(=O)[C@H](CCCNC(=N)N)NC(=O)[C@H](CCSC)NC(=O)[C@H](Cc4ccccc4)NC(=O)CNC(=O)[C@H](CC(C)C)NC1=O)C(=O)N[C@@H]([C@@H](C)CC)C(=O)N1CCC[C@H]1C(=O)N[C@@H](CC(=O)O)C(=O)N[C@@H](CC(N)=O)C(=O)N[C@@H](CC(=O)O)C(=O)N[C@@H](CCCCN)C(=O)N3)NC(=O)[C@H](C(C)C)NC(=O)[C@H](CC(C)C)NC(=O)[C@H](CC(N)=O)NC(=O)[C@@H]1CCCN1C(=O)[C@H](CCCNC(=N)N)NC2=O` [SEQ ID NO: 189] (H-ICLGFMRKCIPDNDKCCRPNLVCSRTHKWCKYVF-NH2; disulfide 2-17, 9-23, 16-30), the IC50 was determined as 8.15 µM on hNav1.5 (setting [1]), 100 nM on hNav1.7 (setting [2]) and 70 nM at hNav1.3 (setting [2]).
